# In article PMC8910920 (International Journal of Molecular Sciences, 2022):
# “Also recorded” adds a separate entry of the source.
# Experiments:
# [1] = In vitro metabolism in human liver microsomes; format: in vitro ADME
# [2] = system: CCI rats, heat hypersensitivity; test: CCI model of neuropathic pain, heat sensitivity (Hargreaves test); format: in vivo, rat
# Experimental: The CCI model of neuropathic pain allowed the evaluation of the effect RGM8-51 on cold, heat and mechanical sensitivity, as assayed by the acetone test, the Hargreaves test, and the automatized von Frey test, respectively. RGM8-51 was applied either locally (i.pl.; 10 µg) in the affected paw or systemically (intraperitoneally, i.p., 10 and 30 mg/kg) and the effect evaluated before (Baseline) and after CCI surgery. The nocifensive response after administration of RGM8-51 was compared with that of vehicle, while non-operated animals and the uninjured (contralateral) hind paw in CCI animals were used as controls.
# Adult male Sprague-Dawley rats (weighing 200–220 g/6–8 weeks old) were used in these experiments. All experimental procedures were conducted according to the animal welfare guidelines of the European Community (European Directive 2010/63/UE) to minimize animal suffering and were approved by Universidad Complutense de Madrid and Comunidad de Madrid ethical committees on animal experimentation (PROEX 207.8/21). […]
# For behavioral testing, rats were placed in individual methacrylate boxes with a wire mesh floor, and after a period of 15 min acclimatization, the cold, heat and mechanical sensitivity of the ipsilateral and contralateral paws was determined. Cold sensitivity was assessed with the acetone test. In total, 100 µL acetone were locally applied to the plantar surface of the hind paw and the duration of the subsequent nocifensive response (licking, brushing, and flinching of the paw) was determined during 60 s. Acetone application and assessment were repeated 2 times with a 5 min interval and the sum of the two values was recorded. Heat sensitivity was determined with the Hargreaves test, which uses infrared light as a heat source, with a Hargreaves apparatus (Serie 8, Model 336, IITC Life Science, Woodland Hills, CA USA). The light beam was directed to the plantar surface of the hind paw and the time from the beginning of irradiation to the appearance of first paw withdrawal movement was measured (paw withdrawal latency). […]
# [3] = system: NTG-induced mechanical hypersensitivity in C57BL6 mice; test: NTG-induced mechanical hypersensitivity, von Frey test; format: in vivo, mouse
# From the text: Administration of NTG intermittently produces a baseline hypersensitivity to mechanical stimulation, which can be measured by the von Frey test. The mechanical stimulus was applied at different times to obtain the time course of the effects produced after compound administration, and both male and female mice were used to investigate a possible sex dimorphism.
# C57BL6 mice (males and females, ≈25 g) (Envigo, Blackthorn, UK) were used for the study. All experiments were approved by the Institutional Animal and Ethical Committee of the Universidad Miguel Hernandez where experiments were conducted and they were in accordance with the guidelines of the Economic European Community and the Committee for Research and Ethical Issues of the International Association for the Study of Pain. All parts of the study concerning animal care were performed under the control of veterinarians. […] The 50% response threshold was calculated using the following formula:50% (g) threshold = (10^(Xf + kd))/10,000 where Xf is the value of the last von Frey filament applied; k is a correction factor based on pattern of responses (from the Dixon’s calibration table); d is the mean distance in log units between stimuli (here, 0.4).
# Von Frey threshold for each animal was calculated, according to the formula, and data analysis was performed by using GraphPad 6.0. […]
structure (smiles),measurement,setting,value
"C[C@@H]1C(=O)N(C[C@H](Cc2ccccc2)N(Cc2ccccc2)Cc2ccccc2)[C@]1(Cc1ccccc1)C(=O)OC(C)(C)C [RGM8-51, 4(S)-Benzyl-3S-methyl-4-(tert-butoxy)carbonyl-1-[(2′S-dibenzylamino-3′-phenyl)prop-1′-yl]-2-oxoazetidine]",Metabolism Clint,[1],614 µL/min/mg
same,Metabolism t1/2,[1],11 min
same,microsomal CLint,"[1]; human, liver microsomes",614 µL/min/mg
same,half-life,"[1]; human, liver microsomes, read-out: Metabolism t1/2",11.3 min
same,heat hypersensitivity in CCI rats,"[2]; i.p. 10 and 30 mg/kg, dose-dependently",effective in decreasing hypersensitivity to heat
same,heat hypersensitivity in CCI rats,[2]; i.pl. 10 µg,did not influence the animal response to heat
same,heat perception in non-operated animals (baseline) or uninjured hind paw,"[2]; rat, in vivo",had no effect on heat perception
same,"NTG-induced mechanical hypersensitivity, male mice","[3]; 30 mg/kg i.p., 60 min post-administration (only this dose and time)",significantly blocked
same,"NTG-induced mechanical hypersensitivity, female mice","[3]; 10 and 30 mg/kg i.p., significant at 30 min, lasting even after 120 min",fully blocked; also recorded: significantly reduces the hypersensitivity threshold induced by NTG
